{"source": "patent US20110212047A1", "about": "“Polymer Therapy for the Treatment of Chronic Microvascular Diseases” (Synth Rx, Inc., priority 2007, published 2011)", "tested_on": "bilateral neovascular AMD with occult choroidal neovascularization", "assay": "Treatment of a patient with bilateral neovascular AMD with occult choroidal neovascularization", "format": "in vivo, human", "details": "after intravitreal injection to both eyes"}
{"substance": "pegaptanib", "values": [{"measurement": "vision, left eye", "setting": "20/80 before", "result": "20/100"}, {"measurement": "vision, right eye", "setting": "CF at six feet before", "result": "CF at six feet"}]}
